Results as given in US6362337B1, “Substituted phenyluracils” (Bayer Aktiengesellschaft, priority 1997, dated 2002).

What was measured:
[1] = test system: weeds; experiment: Post-emergence test, action against weeds; format: in vivo; details: test plants 5-15 cm sprayed, rated after three weeks vs untreated control
Method: (§1) To produce a suitable preparation of active compound, 1 part by weight of active compound is mixed with the stated amount of solvent, the stated amount of emulsifier is added and the concentrate is diluted with water to the desired concentration.
Test plants having a height of 5-15 cm are sprayed with the preparation of active compound such that the particular amounts of active compound desired are applied per unit area. The concentration of the spray liquor is chosen so that the particular amounts of active compound desired are applied in 1000 l of water/ha.
(§2) After three weeks, the degree of damage to the plants is rated in % damage in comparison with the development of the untreated control.
(§3) 0%=no effect (like untreated control)

[2] = test system: weeds; experiment: Pre-emergence test, action against weeds; format: in vivo; details: soil sprayed about 24 hours after sowing, rated after three weeks vs untreated control
Method: as §1
Seeds of the test plants are sown in normal soil. After about 24 hours, the soil is sprayed with the preparation of active compound such that the particular amounts of active compound desired are applied per unit area. The concentration of the spray liquor is chosen so that the particular amounts of active compound desired are applied in 1000 l of water/ha.
as §2, §3

| SMILES | melting point [°C] | action against weeds (degree of damage to the plants) [1] | action against weeds (degree of damage to the plants) [2] |
| --- | --- | --- | --- |
| CCOC(=O)c1cc(-n2c(=O)cc(C(F)(F)F)[nH]c2=O)ccc1OC(C)=O [Example 1, 3-(4-acetoxy-3-ethoxycarbonyl-phenyl)-6-trifluoromethyl-1,2,3,4-tetrahydro-1H-pyrimidine-2,4-dione] | 155 |  |  |
| CCOC(=O)c1cc(-n2c(=O)cc(C(F)(F)F)n(C)c2=O)ccc1OC(C)=O [Example 2, 3-(4-acetoxy-3-ethoxycarbonyl-phenyl)-1-methyl-6-trifluoromethyl-1,2,3,4-tetrahydro-1H-pyrimidine-2,4-dione] | 148 | very strong action against weeds | very strong action against weeds |
| CCOC(=O)c1cc(-n2c(=O)cc(C(F)(F)F)n(N)c2=O)ccc1OC(C)=O [Example 3, 1-amino-3-(4-acetoxy-3-ethoxycarbonyl-phenyl)-6-trifluoromethyl-1,2,3,4-tetrahydro-1H-pyrimidine-2,4-dione] | 190 | very strong action against weeds | very strong action against weeds |
